Data as given in ChEMBL document CHEMBL1127573, “Anticancer specificity of some ellipticinium salts against human brain tumors in vitro” (1994).

Legend:
Type in all cases: functional
Homo sapiens [1] = organism: Homo sapiens; test: Concentration yielding an amount of cellular protein at the end of the incubation that is the same as at the beginning of the incubation in full panel
Homo sapiens [2] = organism: Homo sapiens; test: TGI correlation coefficient value of the compound
Homo sapiens [3] = organism: Homo sapiens; test: Concentration yielding an amount of cellular protein at the end of the incubation that is the same as at the beginning of the incubation in brain tumor sub panel
[4] = Selectivity rating against brain tumor cell line panel; i moderatelyselective (*) if 3< (A/B)< 6 and TGI-Corr > 0.8
[5] = Selectivity rating for brain tumor cell line panel; i selective (**) if (A/B)> 6 and TGI-Corr > 0.8
[6] = Selective rating against brain tumor cell line panel; i selective (**) if (A/B)> 6 and TGI-Corr > 0.8

Row | Compound | TGI concentration (Homo sapiens [1]) [µM] | TGI correlation coefficient (Homo sapiens [2]) | TGI concentration (Homo sapiens [3]) [µM] | Selectivity rating [4] | Selectivity rating [5] | Selectivity rating [6]
1 | CCN(CC)CC[n+]1ccc2c(C)c3[nH]c4ccccc4c3c(C)c2c1.[Br-] | 4.2 | 0.66 | 2.7 | – | – | –
2 | Cc1c2ccncc2c(C)c2c1[nH]c1ccccc12 [ELLIPTECINE] | 3 | <0.5 | 2.9 | – | – | –
3 | CC(=O)[O-].Cc1ccc2[nH]c3c(C)c4cc[n+](C)cc4c(C)c3c2c1 | 21 | 0.83 | 6.9 | Moderately selective | – | –
4 | Cc1c2cc[n+](CCN3CCCCC3)cc2c(C)c2c1[nH]c1ccc(O)cc12 | 34 | 0.71 | 20 | – | – | –
5 | CC(=O)[O-].Cc1c2cc[n+](C)c(C)c2cc2c1[nH]c1ccccc12 | 32 | 0.8 | 8.9 | – | Moderately selective | –
6 | CCN(CC)CC[n+]1ccc2c(C)c3[nH]c4ccc(O)cc4c3c(C)c2c1.[Cl-] [DATELLIPTIUM CHLORIDE] | 34 | 0.78 | 16 | – | – | –
7 | CC(=O)[O-].COc1ccc2[nH]c3c(C)c4cc[n+](C)cc4c(C)c3c2c1 | 18 | 0.94 | 2.1 | – | – | –
8 | Cc1c2ccncc2c(C)c2c1[nH]c1ccc(Cl)cc12 | 17 | <0.5 | 16 | – | – | –
9 | Cc1c2ccncc2c(C)c2c1[nH]c1ccc(O)cc12 | 2.8 | <0.5 | 3.4 | – | – | –
10 | Cc1c2cc[n+](C)cc2c(C)c2c1[nH]c1ccccc12.[I-] | 12 | 0.96 | 1.4 | – | – | –
11 | C=CCCCCn1c2ccccc2c2c(C)c3c[n+](C)ccc3c(C)c21.CC(=O)[O-] | 2.9 | 0.6 | 1.8 | – | – | –
12 | CS(=O)(=O)[O-].Cc1c2cc[n+](C)cc2c(C)c2c1[nH]c1ccccc12 | 11 | 0.86 | 1 | – | – | –
13 | CC(=O)[O-].Cc1c2cc[n+](C)cc2c(C)c2c1oc1ccccc12 | 20 | 0.89 | 5.5 | Moderately selective | – | –
14 | Cc1c2cc[n+](C)cc2c(C)c2c1[nH]c1ccccc12 | – | – | – | – | – | Selective
15 | COc1ccc2[nH]c3c(C)c4ccncc4c(C)c3c2c1 | 3.2 | <0.5 | 3.6 | – | – | –
16 | Cc1c2cc[n+](Cc3ccc(I)cc3)cc2c(C)c2c1[nH]c1ccccc12.[Cl-] | 44 | <0.5 | 54 | – | – | –
17 | CC(=O)[O-].Cc1c2cc[n+](C)cc2c(C)c2c1[nH]c1ccc(O)cc12 [ELLIPTINIUM ACETATE] | 78 | <0.5 | 58 | – | – | –
18 | COc1ccc2[nH]c3c(C)c4cc[n+](C)cc4c(C)c3c2c1 | – | – | – | – | – | Selective
19 | Cc1ccc2[nH]c3c(C)c4ccncc4c(C)c3c2c1 | 2.7 | <0.5 | 3.1 | – | – | –
20 | CC(=O)[O-].Cc1c2cc[n+](C)cc2c(C)c2c1[nH]c1ccc(Cl)cc12 | 22 | 0.85 | 4.7 | Moderately selective | – | –
21 | COc1ccc2[nH]c3c(C)c4cc[n+](C)cc4c(C)c3c2c1.[I-] | 11 | 1 | 1.1 | – | – | –
22 | Cc1nccc2c(C)c3[nH]c4ccccc4c3cc12 | 3.6 | <0.5 | 3.7 | – | – | –
23 | Cc1c2cc[n+]([O-])cc2c(C)c2c1[nH]c1ccccc12 | 62 | <0.5 | 41 | – | – | –
